Laboratory results from PMC3266934, “The Murine Coronavirus Hemagglutinin-esterase Receptor-binding Site: A Major Shift in Ligand Specificity through Modest Changes in Architecture” (PLoS Pathogens, 2012).

Target: T1, MHV-S HE ectodomain (HE / HE^0) (Murine hepatitis virus strain S, UniProt P31614)
T1 construct: HEK293T or HEK293 GnTI(-); codon-optimized synthetic gene; homodimer
Assay: GC-MS of enzymatic de-O-acetylation
Assay type: biochemical
Settings: sialate-4-O-acetylesterase site; thrombin-released ectodomain

T1 sequence (P31614 25-403): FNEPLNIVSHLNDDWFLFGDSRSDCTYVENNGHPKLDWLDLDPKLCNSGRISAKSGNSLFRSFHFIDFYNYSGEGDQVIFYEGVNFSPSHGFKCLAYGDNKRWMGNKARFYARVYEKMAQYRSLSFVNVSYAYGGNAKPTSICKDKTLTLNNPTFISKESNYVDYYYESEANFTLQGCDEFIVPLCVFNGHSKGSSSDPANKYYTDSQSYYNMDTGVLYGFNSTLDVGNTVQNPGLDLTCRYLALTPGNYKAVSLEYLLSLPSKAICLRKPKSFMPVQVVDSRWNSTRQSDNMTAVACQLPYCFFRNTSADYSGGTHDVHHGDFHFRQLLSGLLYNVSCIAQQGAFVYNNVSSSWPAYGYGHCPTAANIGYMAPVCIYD

SMILES: CO[C@]1(C(=O)O)C[C@H](OC(C)=O)[C@@H](NC(C)=O)[C@H]([C@H](O)[C@H](O)COC(C)=O)O1 [αNeu4,5,9Ac32Me, 5-N-acetyl-4,9-di-O-acetylneuraminic acid α-methylglycoside]
- GC-MS of enzymatic de-O-acetylation: retained proper sialate-4-O-acetylesterase activity when assayed for substrate specificity with a synthetic di-O-acetylated Sia
